Reference: patent publication US6365616B1, “Methimazole derivatives and tautomeric cyclic thiones to treat autoimmune diseases” (Sentron Medical, Inc., priority 1998, dated 2002)

Assays:
[1] = tested on: γ-IFN-increased protein/DNA complex with DRα 5′-flanking region probe; assay: Gel shift (EMSA) with 137 class II probe, extracts from γ-IFN-treated FRTL-5 cells; type: cell-based, rat; settings: for % inhibition of IFN-increased complex formation: 137 class II probe, γ-IFN-treated 5H cells
Experimental: Cells were grown in 6H medium with 5 % calf serum for 6-7 days to 70-80% confluence, then shifted to 5H medium with 5 % calf serum for 5 days. TSH (1×10^−10 M), gamma-interferon (100 U/ml), MMI (5 mM), and different concentrations of MMI derivatives or tautomeric cyclic thiones (0.0001 to 10 mM) were added as appropriate for […]. Cells were then harvested and extracts were made by a modification of a method of Dignam, J., et al. Methods in Enzymology, 101:582-598 (1983). In brief, cells were harvested by scraping after being washed twice with cold phosphate-buffer saline (PBS). Subsequently they were pelleted, washed in cold PBS and then pelleted again. The pellet was resuspended in Dignam buffer C (20 mM Hepes buffer at pH 7.9, 1.5 mM MgCl2, 0.42 M NaCl, 25% glycerol, 0.5 mM dithiotreitol (DTT), 0.5 mM phenylmethylsulfonylfluoride (PMSF), 1 […] pepstatin). The final NaCl concentration was adjusted on the basis of cell pellet volume to 0.42 M and cells were lysed by repeated cycles of freezing and thawing. Extracts were then centrifuged at 10,000×g at 4° C. for 20 min. The supernatant was recovered, aliquoted and stored at −70° C.
Cell extracts to perform class II gel shift studies were prepared exactly as for class I studies (Dignam et al., ibid, 582-598 (1983); Giuliani C, et al., J. Biol. Chem. 270: 11453-11462 (1995); Saji M, et al., J. Biol. Chem. 272: 20096-20107 (1997); Montani, V., et al., Endocrinology 139: 280-289 (1998a); Montani, V., et al., Endocrinology 139: 290-302 (1998b)), with the exception that the extracts were from γ-interferon treated cells, usually 100 U/ml interferon for 24 to 48 hours. Similarly, electrophoretic mobility shift assays (EMSA) were performed in the same way. Oligonucleotides used for EMSA were synthesized (Operon Technologies, Inc.) or were purified from 2 % agarose gels using either QIAEX (Qiagen, Chatsworth, Calif.) or Jet Sorb (Genomed) following restriction enzyme treatment of chimeric HLA-DRα-CAT constructs (Montani et al., 1998a, b). The oligonucleotides were dephosphorylated with calf intestinal alkaline phosphatase, labeled with […] or with [γ-^32P]ATP using T4 polynucleotide kinase, then purified on an 8% native polyacrylamide gel (Giuliani C, et al., ibid, 11453-11462 (1995); Saji M, et al., ibid, 20096-20107 (1997); Sambrook J, et al., ibid, 2:11.23-11.44 (1989); Montani, V., et al., ibid, 280-289 (1998a), 290-302 (1998b)).
Binding reactions for class II EMSA used similar conditions as well. They were carried out in a volume of 20 μl for 30 min at room temperature. The reaction mixtures contained 1.5 fmol of [^32P]DNA, 3 μg cell extract and 1.5 to 3 μg poly(di-dC) in 10 mM Tris-Cl at pH 7.9, 1 mM MgCl2, 1 mM DTT, 1 mM EDTA, and 5% glycerol. Where indicated, unlabeled double- or single-stranded oligonucleotides were added to the binding reaction as competitors and incubated with the extract for 20 min at room temperature prior to the addition of labeled DNA. Similarly, in experiments using antiserum, extracts were also incubated in the same buffer containing antiserum or normal rabbit serum for 20 min at room temperature before being processed as above. Following incubations, reaction mixtures were subjected to electrophoresis on 3.5 or 5 % native polyacrylamide gels at 160 V in 0.5xTBE, at room temperature, for 1.5 to 2 h. Gels were dried and autoradiographed at -80° C overnight unless otherwise noted.
FIG. 7 depicts the effect of MMI on the ability of γ-IFN to increase the formation of protein/DNA complexes with the […] DR α5′-flanking region probe. The radiolabeled probe is the same as that used and diagrammatically presented in FIG. 6; it contains −137 bp to +45 bp of the 5′-flanking region of DRα-CAT chimera. Extracts were from FRTL-5 rat thyroid cells grown to near confluency in TSH, maintained 6 days in SH medium, then treated with 100 U/ml γ-IFN, 5 mM MMI, or both for the last 48 h before the experiment was terminated. […]

thyroglobulin RNA = assay: Northern analysis of thyroglobulin RNA levels in FRTL-5 cells; type: cell-based, rat; settings: for % increase in TG RNA expression: 1 mM, 6H medium, 40 hours
NOD mice = assay: Prevention of glucosuria and diabetes in female NOD mice; type: in vivo, mouse; settings: 5-phenylmethimazole at a fifth the MMI concentration
Source text: Female NOD mice were also obtained from Jackson Labs, along with control mice from which the strain was developed (Makino et al., Exp. Anim. 29:1-13 (1980); Wicker, L. S., et al., Diabetes 35:855-860 (1986)). Animals showing urine Tes-Tape positivity greater than 1 + were considered positive and to have diabetes (Wicker, L. S., et al., ibid (1986)). At 8-16 weeks, […] of NOD mice develop glucosuria and diabetes according to the literature (Wicker, L. S., et al., ibid (1986)).
Table 20 presents results of the ability of Female NOD mice (5 animals were in each group) to develop glucosuria and diabetes when treated with MMI and compound 10 (5-phenylmethimazole) at a fifth the MMI concentration, by comparison to no treatment or treatment with 2-mercaptoimidazole. Mice were from Jackson Labs in this experiment. Animals showing urine Tes-Tape positivity greater than 1+ were considered positive and to have diabetes.
Compound 10 and MMI are therefore effective in preventing diabetes in the NOD mouse example of diabetes.

Compound | % inhibition of IFN-increased complex formation ([1]; 10 μM) | % inhibition of IFN-increased complex formation ([1]; 100 μM) | % inhibition of IFN-increased complex formation ([1]; 1 mM) | % inhibition of IFN-increased complex formation ([1]; 5 mM) | % increase in TG RNA expression (thyroglobulin RNA) | increase of TG RNA levels (thyroglobulin RNA; Table 17, 1 mM) | development of glucosuria and diabetes by 12 weeks (NOD mice) | suppression of interferon-induced class II protein/DNA complexes compared with MMI (FIG. 8) ([1]; 1 mM) | increase of TG RNA levels compared with MMI (thyroglobulin RNA; Table 17, 1 mM)
Cn1ccnc1S [Compound 1, 1-Methylimidazole-2-thiol] | 0% | 0% | 10 ± 5% | 85 ± 12% | 207 ± 10% | ~2 fold | prevented glucosuria |  | 
Cc1ncc([N+](=O)[O-])n1CCO [Compound 2, 2-Methyl-5-nitro-1-imidazole ethanol] | 0% | 0% | 55 ± 14% | 95 ± 10% |  |  |  | significantly more effective suppressors than MMI | 
Sc1ncc[nH]1 [Compound 3, 2-Mercaptoimidazole] | 0% | 0% | 0% | 0% |  |  | developed diabetes |  | 
Sc1nc2ccccc2[nH]1 [Compound 4, 2-Mercaptobenzimidazole] | 0% | 5% | 65 ± 15% | Insol |  |  |  |  | 
O=[N+]([O-])c1ccc2[nH]c(S)nc2c1 [Compound 5, 2-Mercapto-5-nitrobenzimidazole] | 0% | 0% | 45 ± 21% | Insol |  |  |  |  | 
Cc1ccc2[nH]c(S)nc2c1 [Compound 6, 2-Mercapto-5-methylbenzimidazole] | 0% | 0% | 35 ± 18% | Insol |  |  |  |  | 
CSc1nccn1C [Compound 7, S-Methylmethimazole] | 0% | 16 ± 11% | 74 ± 13% |  | 122 ± 14% |  |  | significantly more effective suppressors than MMI | no comparable increase
Cn1ccn(C)c1=S [Compound 8, N-Methylmethimazole] | 0% | 21 ± 18% | 86 ± 14% |  | 129 ± 7% |  |  | significantly more effective suppressors than MMI | no comparable increase
Cc1cnc(S)n1C [Compound 9, 5-Methylmethimazole] | 0% | 0% | 25 ± 15% | 40 ± 20% |  |  |  |  | 
Cn1c(-c2ccccc2)cnc1S [Compound 10, 5-Phenylmethimazole] | 35 ± 15% | 78 ± 10% | 95 ± 16% |  |  |  | prevented glucosuria |  | no comparable increase
